Data: patent US9120795B2, “Crystalline form of a β-lactamase inhibitor” (Cubist Pharmaceuticals, Inc., priority 2013, dated 2015)

Tests used:
Kpn clinical, KPC-2 = assay: Synergy MIC (sMIC) assay; format: cell-based, Klebsiella pneumoniae; conditions: KPC-2, clinical Kpn; CXA-101 at 4 μg/mL
Procedure: (§1) The synergy MIC (sMIC) assay determines the concentration of the BLI required to potentiate the activity of a fixed concentration of a β-lactam antibiotic against β-lactamase producing bacterial strains. The experimental protocol was performed according to Clinical and Laboratory Standards Institute (CLSI) guidelines with modifications as described below (CLSI guidelines can be derived from the CLSI document M07-A9 published in January 2012: “Methods for Dilution Antimicrobial Susceptibility Tests for Bacteria That Grow Aerobically; Approved Standard-Ninth Edition”). […]
(§2) Plates were incubated for 18-20 hours at 37° C. with aeration (200 rpm). Following incubation, growth was confirmed visually placing plates over a viewing apparatus (stand with a mirror underneath) and then OD600 was measured using a SpectraMax 340PC384 plate reader (Molecular Devices, Sunnyvale, Calif.). Growth was defined as turbidity that could be detected with the naked eye or achieving minimum OD600 of 0.1. sMIC values were defined as the lowest concentration producing no visible turbidity. […]

Pae clinical, KPC-2 = assay: Synergy MIC (sMIC) assay; format: cell-based, Pseudomonas aeruginosa; conditions: KPC-2, clinical Pae; CXA-101 at 4 μg/mL
Procedure: as §1, §2

## O=C1N2C[C@@H](CC[C@H]2c2nnco2)N1OS(=O)(=O)[O-].[Na+] [Hydrate 1, sodium (2S,5R)-2-(1,3,4-oxadiazol-2-yl)-7-oxo-1,6-diazabicyclo[3.2.1]octan-6-yl sulfate]
Kpn clinical, KPC-2
  sMIC: C (C = 4-8 μg/mL)
Pae clinical, KPC-2
  sMIC: C (C = 4-8 μg/mL)
